Experimental data published in BindingDB's records for doi:10.1021/jm950876u (Universit&#224, 1996).

Molecular target: Xanthine dehydrogenase/oxidase (Homo sapiens, UniProt P47989)
Experiment: Inhibitory activity against Xanthine Oxidase

Xanthine dehydrogenase/oxidase, sequence (P47989 whole entry): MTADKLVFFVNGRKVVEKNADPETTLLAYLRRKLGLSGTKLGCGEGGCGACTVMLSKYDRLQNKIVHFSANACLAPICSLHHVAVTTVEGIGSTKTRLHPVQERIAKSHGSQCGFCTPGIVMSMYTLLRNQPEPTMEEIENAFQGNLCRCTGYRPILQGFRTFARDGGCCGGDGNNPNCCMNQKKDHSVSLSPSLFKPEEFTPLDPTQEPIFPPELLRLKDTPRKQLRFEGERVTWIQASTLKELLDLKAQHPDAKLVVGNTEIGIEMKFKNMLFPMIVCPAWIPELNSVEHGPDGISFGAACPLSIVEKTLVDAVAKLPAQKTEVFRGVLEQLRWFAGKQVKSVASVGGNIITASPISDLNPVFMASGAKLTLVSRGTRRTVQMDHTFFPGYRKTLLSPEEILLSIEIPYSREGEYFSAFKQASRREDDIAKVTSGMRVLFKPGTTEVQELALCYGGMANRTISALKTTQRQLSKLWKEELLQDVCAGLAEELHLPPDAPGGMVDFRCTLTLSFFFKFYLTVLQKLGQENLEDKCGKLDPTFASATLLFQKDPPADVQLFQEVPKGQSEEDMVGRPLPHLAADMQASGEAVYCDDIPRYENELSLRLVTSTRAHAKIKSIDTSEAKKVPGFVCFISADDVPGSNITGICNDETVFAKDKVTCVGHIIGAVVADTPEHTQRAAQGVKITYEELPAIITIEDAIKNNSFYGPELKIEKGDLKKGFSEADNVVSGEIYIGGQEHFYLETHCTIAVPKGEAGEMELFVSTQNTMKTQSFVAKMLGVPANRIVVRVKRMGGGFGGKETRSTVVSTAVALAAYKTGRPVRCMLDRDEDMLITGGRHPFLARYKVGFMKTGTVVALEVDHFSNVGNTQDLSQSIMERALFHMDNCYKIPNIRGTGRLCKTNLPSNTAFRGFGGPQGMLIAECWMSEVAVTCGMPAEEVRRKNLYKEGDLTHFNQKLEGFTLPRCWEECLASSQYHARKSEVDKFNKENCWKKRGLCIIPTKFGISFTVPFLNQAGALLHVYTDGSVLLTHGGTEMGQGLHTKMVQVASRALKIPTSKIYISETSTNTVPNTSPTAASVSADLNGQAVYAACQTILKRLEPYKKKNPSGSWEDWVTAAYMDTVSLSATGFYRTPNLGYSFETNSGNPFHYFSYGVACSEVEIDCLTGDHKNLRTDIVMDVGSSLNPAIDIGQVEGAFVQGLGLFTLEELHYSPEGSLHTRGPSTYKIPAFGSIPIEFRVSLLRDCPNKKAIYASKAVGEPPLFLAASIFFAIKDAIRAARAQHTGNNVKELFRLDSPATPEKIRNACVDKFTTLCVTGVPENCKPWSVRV

Question: Which Ki does the source give for CC1CSc2nc3[nH]c(=O)[nH]c3c(=O)n2C1 (configuration not stated) [2-Hydroxy-7-methyl-7,8-dihydro-3H,6H-5-thia-1,3,4,8a-tetraaza-cyclopenta[b]naphthalen-9-one] here?
Answer: > 100 µM

Question: With CC1CSc2nc3[nH]c(=S)[nH]c3c(=O)n2C1 (configuration not stated) [2-Mercapto-7-methyl-7,8-dihydro-3H,6H-5-thia-1,3,4,8a-tetraaza-cyclopenta[b]naphthalen-9-one] as the molecule, how does the Ki read?
Answer: > 100 µM
